Columns and labels:
[1] = test system: H3K79me2 on NANOG, SOX2, POU5F1 promoters; test: H3K79me2-ChIP at core stem cell gene promoters; type: cell-based, human
Protocol: (A) IL-22 induces H3K79me2 in colon cancer cells. Colon cancer cells were treated with IL-22 for 48 hours. Total histone modifications were analyzed by western blot. (B, C) DOT1L inhibitor, EPZ004777 suppresses colon cancer sphere formation induced by IL-22. Colon cancer sphere assay was performed in the presence of IL-22 and EPZ004777. Sphere numbers were recorded. DLD-1 cells (B), primary colon cancer cells (C). (n=5, P<0.05). (D, E) IL-22 stimulates DOT1L complex gene expression. Colon cancer cells were cultured for 12 hours with IL-22. DOT1L complex gene expression was quantified by real-time PCR. DLD-1 cells (D), primary colon cancer cells (E). (n=3, P<0.05). (F) DOT1L knock down results in reduced colon cancer sphere formation induced by IL-22. Colon cancer sphere assay was performed with colon cancer cells expressing sh-DOT1L or vector in the presence of IL-22. Sphere numbers were recorded. (n=5, P<0.05). (G-I), IL-22 causes higher occupancy of H3K79me2 on core stem cell gene promoters. H3K79me2-ChIP assay was performed in DLD-1 colon cancer cells cultured with IL-22. One of 3 experiments is shown. (J-L), DOT1L inhibitor, EPZ004777 results in reduced occupancy of H3K79 on core stem cell gene promoters induced by IL-22. H3K79me2 ChIP was performed in DLD-1 colon cancer cells cultured with or without IL-22 and EPZ004777. One of three experiments is shown. […]

[2] = test system: colon cancer cells; test: Colon cancer cell proliferation (Ki67 FACS, H3 thymidine incorporation, cell counting); type: cell-based, human
From the text: A. GSEA analysis identifies proliferation pathways have positive correlation with IL-22. B. Cell proliferation maker Ki67 was detected by FACS. C. H^3 Thymidine Incorporation was used to detect the function of IL-22 in cell proliferation. D. Cell number was counted after stimulated with IL-22. E. Cells isolated from colon cancer tissue (Tumor cells and Leukocytes) were stimulated with a-CD3 and […] for 3 days, and supernatant mixed with or without anti-IL-22 antibody was co-cultured with DLD1 cells for 24 h to test cell proliferation. F. Cell cyclin-dependent kinase and kinase inhibitors were analyzed by Real-Time PCR.
A, C. Cell proliferation was analyzed using H^3 Thymidine Incorporation. B. The level of total H3K79m2 and H3K27me3 was measured by Western Blot. D. PcG proteins of EZH2, EED, SUZ12 was increased with IL-22(20 ng/ml) treatment. E. EZH2, SUZ12 and EED was detected by Western Blot after IL-22 treated for 24 h or 48 h. F. EZH2 inhibitor DZNep reduced cell proliferation. G.H. The efficiency of EZH2 and SUZ12 knock down was tested by Western Blot. I.J. Cell proliferation was analyzed using H^3 Thymidine Incorporation after knock down of EZH2 and SUZ12. K.L. Relative expression of cyclin-dependent kinase inhibitors (p16 and p18) in shEZH2, shSUZ12 and Dznep treated cells after IL-22 treatment. M. The level of H3K27me3 in the promoter of p16 and p18 was analyzed by ChIP assay.
A. The protein level of phosphorylated STAT3, STAT1 and STATS were activated by IL-22. B. The effect of STAT3 knock down. C. The effect of IL-22 on cell proliferation was analyzed using H^3 Thymidine Incorporation in Stat3 knock down cells. D. Knock down of STAT3 reduced the expression of EZH2 and SUZ12. E. Based on the ENCODE STAT3-ChIP-Seq data base, STAT3 occupancy on the promoter areas of SUZ12 and EED is shown. F. SUZ12/EED DNA was detected by ChIP assay using an antibody against STAT3, c-fos was used as a positive control.
Three primary colon cancer cell lines (SB, WR, JR) were established from fresh colon tissues. These primary colon cancer cells and DLD1 (ATCC) were studied. Colon cancer cells were treated with recombinant IL-22 (R&D) for different time points. The EZH2 inhibitor DZNep was added in conventional or sphere culture (see, e.g., Kryczek, I., et al., (2012) International journal of cancer 130, 29-39). Tumor cell sphere formation and gene expression were examined (see, e.g., Kryczek, I., et al., (2012) International journal of cancer 130, 29-39).

Row | Compound | H3K79me2 binding in the stem cell gene promoter sites induced by IL-22 ([1]; DLD-1 with or without IL-22 and EPZ004777) | colon cancer cell proliferation induced by IL-22 ([2]; H3 thymidine incorporation) | H3K79me2 binding in proximal promoter areas of NANOG, SOX2, POU5F1 ([1]; DLD-1 cultured with IL-22) | expression of Ki-67 ([2]; FACS) | cell proliferation ([2]; H3 thymidine incorporation and cell number counting)
1 | CC(C)N(CCCNC(=O)Nc1ccc(C(C)(C)C)cc1)C[C@H]1O[C@@H](n2ccc3c(N)ncnc32)[C@H](O)[C@@H]1O [EPZ004777] | reduced | no influence | – | – | –
2 | IL-22: recombinant IL-22 (R&D systems), cytokine interleukin-22 | – | – | increase | increased | increased

Reference: patent US9618513B2, “Compositions and methods for detecting and treating colorectal cancer” (The Regents of the University of Michigan, priority 2014, dated 2017)
